Experimental data from paper PMC7591795, “Humulone Modulation of GABAA Receptors and Its Role in Hops Sleep-Promoting Activity” (Frontiers in Neuroscience, 2020).
Values after ≈ are worked out from the molar mass of the structure shown. “Also recorded” adds a separate entry of the source. Read-outs that look alike come from different tables or passages of the source. Values belong to the molecule of their own block, whether it stands above or below them.

Columns and labels:
[1] = tested on: native αβγ2 GABAA receptors, classical benzodiazepine binding site; design: method as in Benkherouf et al., 2019, 2020; conditions: ref Benkherouf et al., 2019, 2020, cited from earlier work
[2] = tested on: native GABAA receptors in rat forebrain membranes; assay: [3H]EBOB binding assay, rat forebrain membranes; conditions: each compound 1 μM, GABA 3 μM, n = 3
Method: (§1) The protein concentrations of brain membranes were determined with the Bio-Rad Coomassie blue dye-based protein assay kit (Hercules, CA, United States) as per the manufacturer’s protocol. Transfected HEK293 cells were harvested 48 h after transfection using a detaching buffer (10 mM Tris-HCl, 0.15 M NaCl, 2 mM EDTA) and centrifuged at 20,000 g for 10 min at +4 °C. The resulting pellets were suspended in the assay buffer for binding assays.
(§2) In humulone concentration series with recombinant α6β3, α6β3γ2S, and α6β3δ receptors, HEK293 cell membranes were incubated in the same above conditions for 120 min with [^3H]EBOB (1 nM) and different concentrations of humulone (30 nM–30 μM) in the presence or absence of ethanol (30 mM). […] Picrotoxin (100 μM) was used to determine the non-specific binding in all assays.
(§3) Membrane samples were filtered through Whatman GF/B glass fiber filters (Whatman International Ltd., Maidstone, United Kingdom) using a Brandel Cell Harvester (model M-24, Gaithersburg, MD, United States). The filters were rinsed three times with 5 mL of ice-cold 10 mM Tris-HCl, pH 7.4 buffer. Air-dried filters were immersed in 3 mL of Hidex AquaLight Beta scintillation liquid and radioactivity was determined in Hidex 600 SL liquid scintillation counter (Hidex, Turku, Finland).

[3] = tested on: native GABAA receptors in rat forebrain membranes; design: method as in Benkherouf et al., 2020; conditions: ref Benkherouf et al., 2020, cited from earlier work
GABAA receptors = tested on: GABAA receptors; design: method as in Benkherouf et al., 2020; conditions: ref Benkherouf et al., 2020; cited from earlier work
[4] = tested on: native GABAA receptors in rat cerebellar membranes; format: binding
Method: as §1, §2, §3

[5] = molecular target: T1, recombinant α6β3γ2 GABAA receptors (Rattus norvegicus, UniProt P18508+P30191+P63079); assay: [3H]EBOB binding assay, recombinant α6β3γ2 receptors in HEK293 cell membranes; conditions: GABA 3 μM
T1 construct: expressed in transfected cells; host or cells: HEK293 cells, transient CaPO4 transfection, pRK5 plasmids; cell membranes used
Method: (§4) The cells were divided and plated on 150 mm culture dishes for binding assays and 12 mm coverslips in 24-well cell culture plates for electrophysiology 24 h before transfection.
(§5) The cells were transiently transfected with rat cDNAs encoding GABAA receptor subunits (α1, L08490; α6, L08495; β3, X15468; γ2S, L08497; δ, L08496) in pRK5 plasmids under the control of CMV promoter ([Uusi-Oukari et al., 2000]). The plasmids were used in 1:1 and 1:1:1 ratio for transfections containing α1β3γ2S, α6β3, α6β3γ2S, and α6β3δ receptor subtypes. […] (Supplementary Figure S1). For electrophysiology, K4® transfection system (Biontex, München, Germany) was used according to the manufacturer’s protocol to increase expression efficiency and cell viability. […] The medium was changed 24 h after transfection and all experiments were performed 48 h after transfection.
as §1, §2, §3

[6] = molecular target: T2, recombinant α6β3δ GABAA receptors (Rattus norvegicus, UniProt P18506+P30191+P63079); assay: [3H]EBOB binding assay, recombinant α6β3δ receptors in HEK293 cell membranes; conditions: GABA 3 μM
T2 construct: expressed in transfected cells; host or cells: HEK293 cells, transient CaPO4 transfection, pRK5 plasmids; cell membranes used
Method: as §4, §5, §1, §2, §3

[7] = molecular target: T3, recombinant α6β3 GABAA receptors (Rattus norvegicus, UniProt P30191+P63079); assay: [3H]EBOB binding assay, recombinant α6β3 receptors in HEK293 cell membranes; conditions: GABA 3 μM
T3 construct: expressed in transfected cells; host or cells: HEK293 cells, transient CaPO4 transfection, pRK5 plasmids (1:1); cell membranes used
Method: as §4, §5, §1, §2, §3

rats = conditions: ref Bejeuhr, 1993, cited from earlier work
[8] = molecular target: T4, recombinant α1β3γ2 GABAA receptors (Rattus norvegicus, UniProt P18508+P62813+P63079); assay: Whole-cell patch-clamp of GABA-induced currents in transfected HEK293 cells; format: cell-based; conditions: humulone 10 μM, GABA 1 μM, 1 min application, −60 mV, n = 8 cells
T4 construct: expressed in transfected cells; host or cells: HEK293 cells, transient transfection (K4 transfection system), pRK5 plasmids; EGFP co-transfected from a separate pWPI plasmid
Method: Human embryonic kidney (HEK) 293 cells (Sigma- Aldrich, St Louis, MO, United States) were maintained in Dulbecco’s modified Eagle’s medium supplemented with 10% fetal bovine serum (Gibco, Gaithersburg, MD; United States), 50 U/mL penicillin and 50 μg/mL streptomycin (Sigma-Aldrich, St Louis, MO, United States) under standard growth conditions at 37°C, 95% humidity and 5% CO2. The cells were divided and plated on 150 mm culture dishes for binding assays and 12 mm coverslips in 24-well cell culture plates for electrophysiology 24 h before transfection.
The cells were transiently transfected with rat cDNAs encoding GABAA receptor subunits (α1, L08490; α6, L08495; β3, X15468; γ2S, L08497; δ, L08496) in pRK5 plasmids under the control of CMV promoter ([Uusi-Oukari et al., 2000]). The plasmids were used in 1:1 and 1:1:1 ratio for transfections containing α1β3γ2S, α6β3, α6β3γ2S, and α6β3δ receptor subtypes. For radioligand binding, CaPO4 precipitation method was used essentially as described earlier ([Lüddens and Korpi, 1997]). […]
The cells were continuously perfused with external HEK-Krebs solution containing (in mM): 140 NaCl, 4.7 KCl, 1.2 MgCl2, 2.52 CaCl2, 11 glucose, and 5 HEPES, pH 7.4 adjusted with […]. […] The external solution and drug solutions were driven by gravity at the flow rate of 5 mL/min and the current responses were recorded at room temperature (20–22°C).

[9] = design: method as in Fritsch and Shellhammer, 2007; conditions: ref Fritsch and Shellhammer, 2007; cited from earlier work
mice = tested on: mice; design: method as in Schiller et al., 2006; conditions: ref Schiller et al., 2006, cited from earlier work
BALB/cAnNRj mice [10] = assay: Open field test (spontaneous locomotor activity); format: in vivo
Method: Each mouse was then placed individually into the center of a brightly illuminated white Plexiglass arena (50 × 50 × 38 cm) and recorded continuously for 15 min with Ethovision version 13 tracking system (Noldus, Wageningen, The Netherlands). The parameters of locomotor activity such as distance and velocity were quantified and analyzed for the whole and subsections of the arena. All arena surfaces were thoroughly cleaned with 70% ethanol and dried between each tested subject.

BALB/cAnNRj mice [11] = assay: Pentobarbital-induced sleep test
Method: As an index of drug-induced CNS inhibition, sleep latency (time between pentobarbital administration and loss of righting reflex) and duration of sleep (time between loss and recovery of righting reflex) were measured with a chronometer for each mouse. The recovery of the righting reflex was confirmed by the ability of the mice to re-right 3 times within 1 min. The drugs were freshly prepared before use, and the total injection volume (13 mL/kg) was retained constant.

BALB/cAnNRj mice [12] = assay: Ethanol-induced sleep test; conditions: ethanol 3.5 g/kg i.p.; for duration of sleep induced by ethanol: vs control
[13] = ethanol 30 mM co-incubated with humulone 1 μM
[14] = humulone 10 mg/kg i.p. vs control
[15] = humulone 20 mg/kg i.p., 45 min after administration, 15 min observation, vs vehicle, p < 0.01
[16] = humulone 10 mg/kg i.p., pentobarbital sodium 35 mg/kg i.p.

T3 sequence (P30191 20-453): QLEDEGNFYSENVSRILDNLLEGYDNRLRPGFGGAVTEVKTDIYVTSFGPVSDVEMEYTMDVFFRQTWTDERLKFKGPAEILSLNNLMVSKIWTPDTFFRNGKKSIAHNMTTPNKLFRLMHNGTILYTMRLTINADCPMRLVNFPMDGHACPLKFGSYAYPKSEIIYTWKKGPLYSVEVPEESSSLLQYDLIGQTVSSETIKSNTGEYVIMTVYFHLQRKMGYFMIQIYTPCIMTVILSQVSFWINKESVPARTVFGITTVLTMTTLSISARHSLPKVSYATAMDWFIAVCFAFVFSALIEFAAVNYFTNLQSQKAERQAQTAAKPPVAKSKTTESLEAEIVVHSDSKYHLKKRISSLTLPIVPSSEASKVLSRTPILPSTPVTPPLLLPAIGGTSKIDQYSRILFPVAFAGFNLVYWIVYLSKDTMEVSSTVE
T3 sequence (P63079 26-473): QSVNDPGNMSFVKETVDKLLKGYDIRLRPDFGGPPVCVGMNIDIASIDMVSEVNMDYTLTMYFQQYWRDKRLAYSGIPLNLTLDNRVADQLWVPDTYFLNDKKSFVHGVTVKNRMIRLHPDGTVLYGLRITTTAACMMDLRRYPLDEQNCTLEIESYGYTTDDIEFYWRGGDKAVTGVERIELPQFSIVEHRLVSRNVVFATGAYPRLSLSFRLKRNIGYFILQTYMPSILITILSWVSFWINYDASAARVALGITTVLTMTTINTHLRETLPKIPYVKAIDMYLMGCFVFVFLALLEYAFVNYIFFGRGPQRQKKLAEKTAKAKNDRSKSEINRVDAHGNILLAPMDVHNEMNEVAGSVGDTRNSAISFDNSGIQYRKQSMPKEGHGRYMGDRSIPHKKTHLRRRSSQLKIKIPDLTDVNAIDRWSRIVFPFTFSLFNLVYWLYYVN
T2 sequence (P30191 20-453): as the sequence (P30191 20-453) above
T2 sequence (P63079 26-473): as the sequence (P63079 26-473) above
T2 sequence (P18506 25-449): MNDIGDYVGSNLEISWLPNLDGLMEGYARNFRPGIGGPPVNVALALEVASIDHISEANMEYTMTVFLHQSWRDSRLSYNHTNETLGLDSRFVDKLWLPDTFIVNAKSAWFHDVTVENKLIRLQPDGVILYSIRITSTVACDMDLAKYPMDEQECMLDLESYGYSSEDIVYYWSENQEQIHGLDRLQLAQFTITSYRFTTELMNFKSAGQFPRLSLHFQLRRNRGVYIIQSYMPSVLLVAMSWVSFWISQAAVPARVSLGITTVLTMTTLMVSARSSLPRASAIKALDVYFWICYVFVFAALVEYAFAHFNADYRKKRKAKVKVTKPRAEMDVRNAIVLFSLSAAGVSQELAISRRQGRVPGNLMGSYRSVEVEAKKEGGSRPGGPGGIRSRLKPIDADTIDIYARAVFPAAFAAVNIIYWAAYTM
T1 sequence (P30191 20-453): as the sequence (P30191 20-453) above
T1 sequence (P63079 26-473): as the sequence (P63079 26-473) above
T1 sequence (P18508 39-466): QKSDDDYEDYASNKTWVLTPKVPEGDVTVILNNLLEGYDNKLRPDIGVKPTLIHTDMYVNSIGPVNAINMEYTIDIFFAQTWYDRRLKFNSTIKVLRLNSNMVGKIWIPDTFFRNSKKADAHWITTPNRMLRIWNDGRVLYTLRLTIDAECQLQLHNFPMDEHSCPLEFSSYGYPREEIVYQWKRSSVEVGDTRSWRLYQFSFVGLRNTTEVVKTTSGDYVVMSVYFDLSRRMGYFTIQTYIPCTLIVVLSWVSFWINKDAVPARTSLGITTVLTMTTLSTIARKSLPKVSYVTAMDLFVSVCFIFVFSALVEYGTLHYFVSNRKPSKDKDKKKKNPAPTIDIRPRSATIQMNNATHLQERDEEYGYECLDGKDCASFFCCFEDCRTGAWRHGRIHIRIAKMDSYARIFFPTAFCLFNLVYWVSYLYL
T4 sequence (P62813 28-455): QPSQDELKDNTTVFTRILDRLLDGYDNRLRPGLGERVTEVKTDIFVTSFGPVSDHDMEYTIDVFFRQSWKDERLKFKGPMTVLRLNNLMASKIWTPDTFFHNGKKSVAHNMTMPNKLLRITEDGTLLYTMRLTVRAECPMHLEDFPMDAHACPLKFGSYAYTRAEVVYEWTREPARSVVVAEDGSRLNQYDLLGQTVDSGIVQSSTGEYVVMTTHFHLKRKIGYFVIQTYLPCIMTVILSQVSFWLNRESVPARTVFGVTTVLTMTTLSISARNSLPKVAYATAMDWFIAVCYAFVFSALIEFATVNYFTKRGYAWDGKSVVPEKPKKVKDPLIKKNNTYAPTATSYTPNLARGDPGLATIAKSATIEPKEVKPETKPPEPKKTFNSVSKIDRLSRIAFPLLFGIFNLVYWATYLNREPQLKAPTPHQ
T4 sequence (P63079 26-473): as the sequence (P63079 26-473) above
T4 sequence (P18508 39-466): as the sequence (P18508 39-466) above

SMILES: CC(C)=CCc1c(O)cc2c(c1O)C(=O)C[C@@H](c1ccc(O)cc1)O2 [6PN, 6-prenylnaringenin]
displacement of [3H]Ro 15-4513 binding (benzodiazepine binding site) [1]: remarkably more efficient | [3H]EBOB displacement normalized to the maximum radioligand binding in the presence of 3 μM GABA alone [2]: 14.2 ± 1.4% | sensitivity of modulatory effect on [3H]EBOB binding to flumazenil antagonism [3]: insensitivity

[3H]EBOB displacement normalized to the maximum radioligand binding in the presence of 3 μM GABA alone [2]: 14.4 ± 0.9%
SMILES: COc1cc(O)c(CC=C(C)C)c2c1C(=O)CC(c1ccc(O)cc1)O2 (stereo not drawn) [IXN, isoxanthohumol]

SMILES: CC(C)=CCC1=C(O)C(O)(CC=C(C)C)C(=O)C(C(=O)C(C)C)=C1O (stereo not drawn) [cohumulone]
modulatory effects on GABAA receptors (GABAA receptors): weak modulatory effects

SMILES: CCO [ethanol]
effect of ethanol solely on [3H]EBOB binding [4]: neither displaces nor modulates | ethanol enhancement of humulone-mediated [3H]EBOB displacement [5, 13]: did not alter; also recorded: did not enhance | effect of ethanol alone on GABA-induced [3H]EBOB binding ([5]; ethanol 30 mM): unaffected | ethanol enhancement of humulone-mediated [3H]EBOB displacement ([6]; ethanol 30 mM co-incubated with humulone 1 μM, α6β3δ): did not significantly enhance | effect of ethanol alone on GABA-induced [3H]EBOB displacement ([6]; ethanol 30 mM, α6β3δ): no effect; also recorded: unaffected | ethanol enhancement of humulone-mediated [3H]EBOB displacement [7, 13]: did not alter; also recorded: did not enhance | effect of ethanol alone on GABA-induced [3H]EBOB binding ([7]; ethanol 30 mM): unaffected

SMILES: CC(C)=CCC1=C(O)[C@@](O)(CC=C(C)C)C(=O)C(C(=O)CC(C)C)=C1O [humulone]
LD50 (rats; i.m. (rats)): 600 mg/kg/b.w. | LD50 (rats; p.o., rodents): 1,500 mg/kg/b.w. | extent of humulone non-competitive synergy with ethanol, cerebellum compared to forebrain ([4]; humulone 1 μM + ethanol 30 mM, from Table 1): 11.2% | potentiation of GABA-induced peak current amplitude, normalized to 1 μM GABA alone [8]: 158 ± 41% | displacement of [3H]Ro 15-4513 binding (benzodiazepine binding site) [1]: very weak displacement | displacement of [3H]Ro 15-4513 binding (benzodiazepine binding site) ([1]; listed as humulone fraction): low potency | concentration at which potentiation of GABA-induced [3H]EBOB displacement was observed [5]: ≥ 10 µM | effect on [3H]EBOB displacement induced by GABA ([5]; humulone 1 μM): absent | solubility in beer [9]: 14 µg/mL (≈ 38.6 µM) | [3H]EBOB displacement normalized to the maximum radioligand binding in the presence of 3 μM GABA alone [2]: 13.5 ± 1.5% | concentration at which potentiation of GABA-induced [3H]EBOB displacement was evident ([6]; α6β3δ): ≥ 1 µM | increase in potency in α6β3δ compared to α6β3 receptors ([6]; ratio of IC50 values): 6.7 fold | increase in potency in α6β3δ compared to α6β3γ2 receptors ([6]; ratio of IC50 values): 5.8 fold | duration of sleep induced by ketamine (mice; humulone component in alpha acid extract at 21 mg/kg): increase | duration of sleep induced by ketamine, additional effect at higher dose (mice; humulone component in alpha acid extract at 42 mg/kg): no additional effect | concentration at which potentiation of GABA-induced [3H]EBOB displacement was observed [7]: ≥ 10 µM | effect on [3H]EBOB displacement induced by GABA ([7]; humulone 1 μM): absent | significant difference in average velocity in open field (BALB/cAnNRj mice [10]; [14]): not observed | significant difference in total distance traveled in open field (BALB/cAnNRj mice [10]; [14]): not observed | average velocity in open field (BALB/cAnNRj mice [10]; [15]): lower | total distance traveled in open field (BALB/cAnNRj mice [10]; [15]): shorter | time spent in periphery and center in open field (BALB/cAnNRj mice [10]; humulone 10 and 20 mg/kg i.p. vs vehicle, Supplementary Figure S3): no differences | duration of sleep induced by pentobarbital (BALB/cAnNRj mice [11]; [16]): not observed | sleep latency induced by pentobarbital (BALB/cAnNRj mice [11]; [16]): not observed | duration of sleep induced by pentobarbital (BALB/cAnNRj mice [11]; humulone 20 mg/kg i.p., 45 min before pentobarbital sodium 35 mg/kg i.p., vs control, p < 0.001): prolonged | sleep latency induced by pentobarbital (BALB/cAnNRj mice [11]; humulone 20 mg/kg i.p., 45 min before pentobarbital sodium 35 mg/kg i.p., vs control, p < 0.01): significantly decreased | IC50 ([3]; rat forebrain membranes, read-out: IC50, modulation of [3H]EBOB binding): 3.2 ± 0.4 µM | sensitivity of modulatory effect on [3H]EBOB binding to flumazenil antagonism [3]: insensitive | sensitivity of modulatory effect on [3H]EBOB binding to flumazenil antagonism ([3]; listed as humulone fraction): insensitivity | duration of sleep induced by ethanol (BALB/cAnNRj mice [12]; humulone 10 mg/kg i.p., p < 0.05): significantly increased | duration of sleep induced by ethanol (BALB/cAnNRj mice [12]; humulone 20 mg/kg i.p., p < 0.001): significantly increased | onset of sleep induced by ethanol (BALB/cAnNRj mice [12]; humulone 10 or 20 mg/kg i.p.): no effect

SMILES: CCC(C)C(=O)C1=C(O)C(CC=C(C)C)=C(O)C(O)(CC=C(C)C)C1=O (stereo not drawn) [adhumulone]
modulatory effects on GABAA receptors (GABAA receptors): weak modulatory effects
